Results on 14 molecules are retold here after ChEMBL document CHEMBL1201862, “PubChem BioAssay data set” (2004).

Activity calls are given as the source filed them.

Assay [1] has as its target T1, Trace amine-associated receptor 1 (Homo sapiens, UniProt Q96RJ0).
T1 sequence (Q96RJ0 whole entry): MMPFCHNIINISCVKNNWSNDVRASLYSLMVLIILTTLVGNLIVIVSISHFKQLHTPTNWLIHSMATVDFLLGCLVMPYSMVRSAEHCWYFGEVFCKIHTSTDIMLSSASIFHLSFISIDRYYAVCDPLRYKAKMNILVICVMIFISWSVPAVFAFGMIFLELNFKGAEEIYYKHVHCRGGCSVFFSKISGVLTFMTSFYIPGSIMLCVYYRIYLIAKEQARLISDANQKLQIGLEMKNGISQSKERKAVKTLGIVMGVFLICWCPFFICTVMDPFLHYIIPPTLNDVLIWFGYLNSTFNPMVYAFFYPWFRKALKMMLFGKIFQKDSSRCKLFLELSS
Put plainly: Counterscreen for agonists of the human trace amine associated receptor 1 (hTAAR1): Fluorescence-based cell-based high throughput dose response assay to identify hTAAR1 agonist that also desensitize TAAR1 receptor response. The format is functional.

For assay [2], the target named is T1, Trace amine-associated receptor 1. Put plainly: Fluorescence-based cell-based high throughput dose response assay to identify agonists of the human trace amine associated receptor 1 (TAAR1). The format is functional.
Assay [3] in a line: cells. The format is functional, cell-based.
Assay [4] in a line: cells. The format is functional, cell-based. The source holds these as a separate data set.
Assay [5] has as its target Disintegrin and metalloproteinase domain-containing protein 17 (Homo sapiens, UniProt P78536). Put plainly: ADAM17 protease inhibitors, dose response, counter-screen for ADAM10 exosite inhibitor project, biochemical, quenched FRET substrate (AID 743253). (The purpose of a counterscreen is to sort out artefacts and off-target activity.)
A short description of assay [6]: ADAM10 inhibitors, peptide cleavage, dose response, biochemical, QFRET (AID 743254).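 Further: ADAM10 enzyme with the DM2 quenched FRET peptide as substrate; EDANS fluorescence gain as the protease cuts the substrate; inhibitor potency against ADAM10 proteolytic activity.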
Assay [7] is described as follows: Luminescence Cell-Based Dose Retest to Confirm Inhibitors of Cancer Stem Cells. [Related pubchem assays (depositor defined):AID2717, AID2721]. The following applies: Homo sapiens. Format: functional.
Assay [8] is described as follows: M. tuberculosis H37Rv growth inhibitors, H37Rv strain (AID 1626). Format: functional.
The nature of assay [9]: NIH-3T3 fibroblast cytotoxicity, dose response, cytotoxicity control, cell-based, fluorescence, Alamar Blue, secondary assay (AID 2327).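 Further: NIH-3T3 mouse fibroblasts cultured with fluconazole at 8 µg/mL.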 The format is functional.
Another assay deals with Jurkat. Put plainly: antigen receptor-induced NF-kB inhibitors, dose response, Jurkat, luciferase reporter, luminescence, B- and T-cell (AID 489004).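 Further: NF-kB luciferase reporter Jurkat cells stimulated with PMA plus ionomycin.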 Format: functional, cell-based. Conditions: Homo sapiens. (In a reporter assay the amount or activity of a reporter protein is the signal.)
Assay [10] deals with T2, COUP transcription factor 2 (Homo sapiens, UniProt P24468).
T2 sequence (P24468 whole entry): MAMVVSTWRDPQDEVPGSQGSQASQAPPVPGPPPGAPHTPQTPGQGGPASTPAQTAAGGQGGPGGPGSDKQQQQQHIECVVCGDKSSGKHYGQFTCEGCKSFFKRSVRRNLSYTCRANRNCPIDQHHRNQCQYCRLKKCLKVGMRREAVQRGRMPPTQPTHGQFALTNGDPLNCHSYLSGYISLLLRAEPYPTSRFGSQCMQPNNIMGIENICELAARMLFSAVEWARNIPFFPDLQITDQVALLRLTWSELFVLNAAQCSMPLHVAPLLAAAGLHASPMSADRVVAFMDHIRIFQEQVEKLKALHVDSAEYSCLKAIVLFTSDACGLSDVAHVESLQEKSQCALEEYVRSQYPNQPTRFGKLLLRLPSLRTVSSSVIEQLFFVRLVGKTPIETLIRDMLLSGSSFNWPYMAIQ
Put plainly: Luminescence-based cell-based high throughput dose response assay to identify inhibitors of COUP-TFII (NR2F2). The format is functional.

For the next assay, the system named is INS1. Put plainly: beta cell apoptosis inhibitors, cytokine rescue, dose response, luminescence, retest (AID 449756).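 Further: cell death triggered by IL-1 beta plus TNF-alpha plus IFN-gamma mixture; protective hits raise ATP signal compared with cytokine alone wells.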 Format: functional, cell-based. The following applies: Rattus norvegicus.
A short description of assay [11]: cytotoxicity in HEK-293T NF-kB-Luc cells, dose response, cytotoxicity control for B/T-cell NF-kB inhibitor project, cell-based, uHTS hits (AID 489019).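 Further: IC50 reflects cytotoxicity as loss of cell viability.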 Format: functional.
Assay [12] can be described thus: cytotoxicity toward NIH3T3 fibroblasts, dose response, counter-screen, cell-based, ATP luminescence, mouse fibroblasts (AID 2010).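 Further: cells exposed to compound for about 90 hours before reading.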 The format is functional.
Assay [13] can be described thus: C. albicans growth with fluconazole, confirmation, fluorescence, retest (AID 2467). Format: functional, cell-based.
Assay [14] has as its target T3, Microphthalmia-associated transcription factor (Homo sapiens, UniProt O75030).
T3 sequence (O75030 whole entry): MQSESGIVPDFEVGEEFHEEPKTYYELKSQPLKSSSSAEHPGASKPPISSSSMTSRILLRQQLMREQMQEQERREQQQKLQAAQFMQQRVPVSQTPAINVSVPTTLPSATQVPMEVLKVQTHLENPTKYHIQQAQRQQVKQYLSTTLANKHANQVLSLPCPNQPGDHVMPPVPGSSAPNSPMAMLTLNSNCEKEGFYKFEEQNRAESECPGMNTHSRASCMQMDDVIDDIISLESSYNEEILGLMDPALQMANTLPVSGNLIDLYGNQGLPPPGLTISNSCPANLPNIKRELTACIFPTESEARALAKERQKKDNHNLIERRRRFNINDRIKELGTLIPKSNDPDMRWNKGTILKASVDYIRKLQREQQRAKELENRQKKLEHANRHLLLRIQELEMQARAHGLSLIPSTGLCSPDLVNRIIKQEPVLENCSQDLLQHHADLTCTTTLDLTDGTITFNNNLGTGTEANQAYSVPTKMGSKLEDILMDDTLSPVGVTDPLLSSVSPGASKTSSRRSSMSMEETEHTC
Put plainly: TRPM1 promoter luciferase signal decrease, dose response, MITF inhibitor project, cell-based, SK-MEL-5, cherry-picked, set 3 (AID 493073).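 Further: SK-MEL-5 melanoma cells with luciferase driven by the MITF target TRPM1 promoter.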 The format is functional.

Assay [15] in a line: inhibitors of intracellular T. cruzi replication, confirmation, NIH3T3 host cells, beta-gal luminescence (AID 2044).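 Further: intracellular parasites grown in NIH/3T3 mouse fibroblasts as host cells; luminescent beta-galactosidase reporter signal from transgenic T. cruzi replicating inside host cells; inhibitors lower the luminescence signal.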 Format: functional, cell-based.
A further assay has as its target T4, Estrogen receptor (Homo sapiens, UniProt P03372).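 Further: potency for inhibiting coactivator peptide recruitment to the receptor.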
T4 sequence (P03372 whole entry): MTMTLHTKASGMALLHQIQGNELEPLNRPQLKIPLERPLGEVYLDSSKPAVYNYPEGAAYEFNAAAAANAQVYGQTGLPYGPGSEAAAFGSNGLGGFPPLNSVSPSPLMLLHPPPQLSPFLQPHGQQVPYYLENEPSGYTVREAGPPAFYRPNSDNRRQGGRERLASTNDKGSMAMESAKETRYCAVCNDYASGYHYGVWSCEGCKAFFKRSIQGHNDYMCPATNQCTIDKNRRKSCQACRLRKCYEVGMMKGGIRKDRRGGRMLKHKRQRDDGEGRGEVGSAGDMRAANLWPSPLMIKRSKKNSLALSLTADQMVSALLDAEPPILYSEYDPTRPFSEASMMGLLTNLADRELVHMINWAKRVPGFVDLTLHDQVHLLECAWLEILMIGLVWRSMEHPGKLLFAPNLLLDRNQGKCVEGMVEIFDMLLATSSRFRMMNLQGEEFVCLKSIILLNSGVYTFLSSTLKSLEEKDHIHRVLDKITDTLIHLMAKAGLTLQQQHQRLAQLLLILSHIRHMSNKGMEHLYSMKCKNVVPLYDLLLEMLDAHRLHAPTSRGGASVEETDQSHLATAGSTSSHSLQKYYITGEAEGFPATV

The nature of assay [16]: growth suppression of beta-catenin-knockout colon cells, dose response, cell-based, HCT116, human colon tumor (AID 1045).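 Further: HCT116 colon tumor cells with beta catenin knocked out; cells exposed to compound for 60 hours.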 The format is functional.
Assay [17] has as its target Sphingosine 1-phosphate receptor 2 (Homo sapiens, UniProt O95136). Put plainly: Dose Response Cell Based Assay for Agonists of the S1P2 Receptor. [Related pubchem assays: 729, 736, 843 ]. The format is functional.
The nature of assay [18]: growth suppression of PTEN-null colon cells, dose response, cell-based, HCT116 PTEN knockout (AID 1047).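 Further: HCT116 colon tumor cells with PTEN knocked out; cells exposed to compound for 60 hours before readout; potency for loss of cell viability measured by luminescence.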 Format: functional.
Another assay deals with T5, Protein RecA (Mycobacterium tuberculosis, UniProt P9WHJ3).
T5 sequence (P9WHJ3 whole entry): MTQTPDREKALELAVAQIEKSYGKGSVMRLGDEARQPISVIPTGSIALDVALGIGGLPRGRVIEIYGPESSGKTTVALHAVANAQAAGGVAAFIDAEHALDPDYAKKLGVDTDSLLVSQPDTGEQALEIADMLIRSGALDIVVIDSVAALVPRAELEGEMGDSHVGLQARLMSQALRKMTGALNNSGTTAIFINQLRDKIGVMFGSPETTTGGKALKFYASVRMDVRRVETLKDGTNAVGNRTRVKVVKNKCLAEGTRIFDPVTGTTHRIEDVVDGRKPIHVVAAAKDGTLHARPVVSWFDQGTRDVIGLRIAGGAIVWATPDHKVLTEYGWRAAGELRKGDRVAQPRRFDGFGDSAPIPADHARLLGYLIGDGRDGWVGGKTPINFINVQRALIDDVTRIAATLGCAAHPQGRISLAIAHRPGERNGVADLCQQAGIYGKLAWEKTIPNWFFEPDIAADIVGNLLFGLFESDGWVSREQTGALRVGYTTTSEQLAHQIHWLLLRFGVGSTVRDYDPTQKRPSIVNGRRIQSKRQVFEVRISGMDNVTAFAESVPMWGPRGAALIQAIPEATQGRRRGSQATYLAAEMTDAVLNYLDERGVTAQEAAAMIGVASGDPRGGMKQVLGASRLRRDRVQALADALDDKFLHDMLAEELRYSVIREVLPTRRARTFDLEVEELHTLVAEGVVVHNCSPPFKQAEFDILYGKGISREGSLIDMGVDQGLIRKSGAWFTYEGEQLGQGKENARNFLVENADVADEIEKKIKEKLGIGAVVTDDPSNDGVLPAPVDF
Put plainly: Fluorescence Cell-Free Homogeneous Dose Retest to Identify Inhibitors of RecA-Intein Splicing Activity. [Related pubchem assays (depositor defined):AID2097, AID2223, AID489010, AID492950]. Format: functional.

Assay [19] concerns the target Luciferin 4-monooxygenase (Photinus pyralis, UniProt P08659). Put plainly: firefly luciferase enzyme inhibitors, dose response, biochemical, luminescence (AID 1891).
Assay [20] can be described thus: Luminescence Cell-Based Dose Confirmation HTS to Identify Inhibitors of Platelet Dense Granule Release. [Related pubchem assays: 1663 (Primary HTS), 1678 (Summary of Project)]. Format: functional.

Sequence of Sphingosine 1-phosphate receptor 2 (O95136 whole entry): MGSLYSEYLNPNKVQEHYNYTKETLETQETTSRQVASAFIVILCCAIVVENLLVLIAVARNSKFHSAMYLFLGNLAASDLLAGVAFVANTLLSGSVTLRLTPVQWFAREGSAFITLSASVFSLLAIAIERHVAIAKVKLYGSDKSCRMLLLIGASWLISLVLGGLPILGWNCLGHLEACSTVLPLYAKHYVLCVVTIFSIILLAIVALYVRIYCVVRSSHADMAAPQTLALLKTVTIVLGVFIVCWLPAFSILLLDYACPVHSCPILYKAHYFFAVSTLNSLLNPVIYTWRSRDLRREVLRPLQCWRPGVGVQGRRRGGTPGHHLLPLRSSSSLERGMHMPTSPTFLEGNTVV
Sequence of Disintegrin and metalloproteinase domain-containing protein 17 (P78536 whole entry, the tested form may be a part): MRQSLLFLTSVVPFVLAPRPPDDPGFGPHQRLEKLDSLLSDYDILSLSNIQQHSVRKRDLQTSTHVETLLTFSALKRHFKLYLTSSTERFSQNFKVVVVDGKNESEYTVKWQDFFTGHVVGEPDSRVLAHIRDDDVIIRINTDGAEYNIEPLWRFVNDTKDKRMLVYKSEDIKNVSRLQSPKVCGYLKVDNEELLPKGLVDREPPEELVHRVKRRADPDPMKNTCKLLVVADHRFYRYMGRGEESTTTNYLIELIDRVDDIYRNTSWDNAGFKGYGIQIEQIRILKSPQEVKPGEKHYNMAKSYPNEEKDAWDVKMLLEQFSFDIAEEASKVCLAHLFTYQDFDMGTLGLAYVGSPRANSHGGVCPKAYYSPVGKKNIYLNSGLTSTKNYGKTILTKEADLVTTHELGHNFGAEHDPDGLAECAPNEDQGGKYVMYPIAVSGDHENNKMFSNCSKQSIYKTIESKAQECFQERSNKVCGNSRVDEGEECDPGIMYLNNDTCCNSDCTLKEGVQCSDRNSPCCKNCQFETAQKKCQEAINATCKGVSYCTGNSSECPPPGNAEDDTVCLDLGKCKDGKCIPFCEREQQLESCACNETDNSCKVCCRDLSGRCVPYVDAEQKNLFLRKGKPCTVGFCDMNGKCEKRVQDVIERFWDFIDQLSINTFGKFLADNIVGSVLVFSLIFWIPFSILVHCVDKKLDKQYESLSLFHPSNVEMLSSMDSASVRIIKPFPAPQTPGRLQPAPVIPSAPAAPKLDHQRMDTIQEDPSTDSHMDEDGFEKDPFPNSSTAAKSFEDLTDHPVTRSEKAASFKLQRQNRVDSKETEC
Sequence of Luciferin 4-monooxygenase (P08659 whole entry): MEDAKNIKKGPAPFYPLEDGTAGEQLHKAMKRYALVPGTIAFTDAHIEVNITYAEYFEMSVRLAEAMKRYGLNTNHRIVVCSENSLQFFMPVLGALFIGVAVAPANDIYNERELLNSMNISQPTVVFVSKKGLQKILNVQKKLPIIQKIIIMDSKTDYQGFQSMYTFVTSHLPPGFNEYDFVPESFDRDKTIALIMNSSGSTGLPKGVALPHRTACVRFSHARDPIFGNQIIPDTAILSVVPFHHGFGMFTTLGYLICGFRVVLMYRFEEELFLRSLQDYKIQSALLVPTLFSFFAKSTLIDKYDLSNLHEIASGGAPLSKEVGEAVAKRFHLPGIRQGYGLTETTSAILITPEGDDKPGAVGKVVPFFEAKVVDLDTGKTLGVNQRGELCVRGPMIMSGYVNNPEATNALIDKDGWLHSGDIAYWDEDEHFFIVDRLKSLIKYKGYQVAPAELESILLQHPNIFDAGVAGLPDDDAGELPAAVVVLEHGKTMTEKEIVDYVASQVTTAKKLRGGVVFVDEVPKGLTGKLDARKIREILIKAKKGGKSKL

On to `COc1ccc(CNCCc2ccccc2F)c(OC)c1C`, for which the results for the IC50 (in [1]; in the assay “cells [3]”) were 3.46 µM (active) and > 29.9 µM (inactive), respectively. Besides, the EC50 was 0.498 µM (active) in assay [2] and > 29.9 µM (inactive) in the assay “cells [4]”.
As to `Cc1ccc(S(=O)(=O)Nc2ccc(-c3nnc(SCc4ccccc4Cl)o3)cc2)cc1`, the IC50 in assay [5] and in assay [6] was > 69.5 µM (inactive) each time. Also, in [7], the concentration at half-maximal activity (AC50) is 3.88 µM (active).
In the case of `CC(=O)c1c(C)n(C)c2ccc(O)cc12`, the IC50 in assay [8] is > 100 µM (active).
Consider `CN(C)c1cc[n+](CC(=O)c2ccc(-c3ccccc3)cc2)cc1`, for which the EC50 in assay [9] was > 160 µM (inactive); in [12], > 60 µM (not active); in assay [13] it was 2 µM (active); in [15], 0.515 µM (active). Further, the IC50 with Jurkat was 4.41 µM (active); in [10] it was 10.2 µM (inactive); in assay [11], > 80 µM (inactive). For the same molecule, the AC50 was 1.55 µM (active) in the assay on INS1 and 2.6 µM (active) in assay [14].
As for `O=C(NCCc1ccccc1)c1nc(C(F)(F)F)[nH]c1-c1ccccc1`, the IC50 in [1] was 9.43 µM (active); in “cells [3]” it was > 29.9 µM (inactive). Further, the EC50 was 4.78 µM (active) in assay [2] and > 29.9 µM (inactive) in “cells [4]”.
With `COC(=O)c1ccc2c(=O)n(CC3CCCO3)c(SCC(=O)Nc3ccccc3Cl)nc2c1` (centres undefined), at Estrogen receptor, the 50% inhibitory concentration (IC50) was 20.9 µM (active).
Take `NS(=O)(=O)c1ccc(NCc2cc(Cl)ccc2OCc2ccccc2F)cc1`: the IC50 in [5] is > 69.5 µM (inactive); in [6] it was 10.9 µM (inactive).
Take `CCOC(=O)/C=C/C(=O)Nc1nccs1`: the IC50 in [8] was > 100 µM (active).
`COC(=O)c1oc2ccc(Br)cc2c1NC(=O)CCCN1C(=O)c2ccccc2C1=O`: on Estrogen receptor, the half-maximal inhibitory concentration (IC50) was 42.3 µM (not active).
Take `CCC(C)NC(=O)c1c(N)n(Cc2ccc3c(c2)OCO3)c2nc3ccccc3nc12` (centres undefined): the concentration giving a half-maximal response (EC50) is 14.2 µM (active) in [16], 2.41 µM (active) in assay [17], 15.3 µM (active) in [18] and > 380 µM (inconclusive) at Protein RecA.
As for `COc1ccc2cc(S(=O)(=O)NCCCN3CCOCC3)ccc2c1`, the EC50 in assay [17] was > 50 µM (not active).
With `O=C1CCCC(=O)C1=CNCCc1ccccc1`, the EC50 in assay [19] is reported as > 112 µM (not active); in assay [17], > 50 µM (not active); in assay [20], > 112 µM (not active).
As to `CCCCCCCCN1C(=O)[C@@H](CC(=O)NCCc2ccccc2OC)C[C@@]2(C(=O)OC)C1=C[C@H](C(C)(C)C)O[C@@H]2C`, the values for the IC50 (in assay [1]; in “cells [3]”) were 6.93 µM (active) and > 29.9 µM (inactive), respectively. In addition, the EC50 in assay [2] is 5.23 µM (active); in the assay “cells [4]”, > 29.9 µM (inactive).
In the case of `COc1cc(-c2cc(C(=O)Nc3nc4ccccc4s3)c3ccccc3n2)cc(OC)c1OC`, in assay [8], the IC50 was > 100 µM (active).

Broadly, the IC50 is the midpoint of a concentration-inhibition curve. Usually EC50 stands for the concentration at which the effect is half-maximal. One may read the AC50 as the concentration at which the activity in the assay is half-maximal.
